Converted amounts (≈) assume the structure as drawn.

The experiment deals with P. acnes. In words: Agar dilution method: growth of P. acnes and MIC, compounds tested singly. Format: cell-based, Propionibacterium acnes. Set-up: key to Growth Index (+++, ++, +, −) Plate 1 / Growth Index (+++, ++, +, −) Plate 2 / Growth Index (+++, ++, +, −) Plate 3 / Growth Index (+++, ++, +, −) Avg: +++: confluent growth (comparable to control); ++: less confluent growth; +: marked reduction in growth to multiple tiny, single colonies; −: no growth present. Conditions: for MIC: Cutibacterium acnes, compound alone, MIC = concentration with marked reduction (+) of growth, read-out: MIC (mg/mL) as per P-11-0007 or P-11-0008 Addendum A. Here is the method: Several compounds including fatty acids such as DGLA, 15-OHEPA, and 15-HETrE were tested to determine their capacity to inhibit the growth of P. acnes. In an exemplary method, an agar dilution method was used to determine the minimum inhibitory concentration (MIC) of each tested compound. Briefly, the agar dilution method involved preparing a series of concentrations of each compound (e.g., nicotinamide, benzoyl peroxide, adapalene, metronidazole, DGLA, 15-OHEPA, and 15-HETrE) in a Reinforced Clostridial Agar (RCA) media that facilitates growth of P. acnes under anaerobic conditions. An inoculum of P. acnes was prepared by incubation of P. acnes for approximately seven days at 35-37° C. to achieve a ≧1.0 OD600 inoculum of P. acnes in RCM broth. A portion of this inoculum was then added to the surface of each plate as a 10 μL spot and incubated at 35-37° C. for 72 hours or more. Growth of P. acnes was then observed and compared to control plates in which no compound has been added, and positive inhibition plates prepared with erythromycin. […] The growth of P. acnes in the presence of nicotinamide, benzoyl peroxide, adapalene, metronidazole, DGLA, 15-OHEPA, and 15-HETrE was determined with varying concentrations of the compound (see, Table 2). Next, the MIC was determined as the concentration at which a marked reduction (+) occurs in the appearance of growth on the test plate (as per Clinical and Laboratory Standards Institute M11-A7).

The mark [1] stands for this setting: compound at 0.00001 mg/mL in agar.
[2] abbreviates: compound at 0.0001 mg/mL in agar.
Setting [3] is: compound at 0.001 mg/mL in agar.
The mark [4] stands for this setting: compound at 0.010 mg/mL in agar.
[5] abbreviates: compound at 0.025 mg/mL in agar.
The mark [6] stands for this setting: compound at 0.050 mg/mL in agar.
Setting [7] is: compound at 0.075 mg/mL in agar.

For the compound `CCCCCC(O)/C=C/C=C\C/C=C\CCCCCCC(=O)O` (stereo not shown) [15-HETrE, 15-Hydroxy-eicosa-8(Z),11(Z),13(E)-trienoic acid], the “effect on growth of P. acnes on its own” value (0.01 mg/ml) is listed as “no effect on its own”. Besides, the “Growth Index (+++, ++, +, −) Avg” value runs as follows: under setting [1], “+++”; under setting [2], “+++”; under setting [3], “+++”; (compound at 0.01 mg/mL in agar) “++”. For the same compound, the “Growth Index (+++, ++, +, −) Plate 1” value reads like this: under setting [1], “+++”; under setting [2], “+++”; under setting [3], “+++”; (compound at 0.01 mg/mL in agar) “++”. In addition, the “Growth Index (+++, ++, +, −) Plate 2” value reads like this: under setting [1], “+++”; under setting [2], “+++”; under setting [3], “+++”; (compound at 0.01 mg/mL in agar) “+++”. Moreover, the “Growth Index (+++, ++, +, −) Plate 3” value runs as follows: under setting [1], “+++”; under setting [2], “+++”; under setting [3], “+++”; (compound at 0.01 mg/mL in agar) “++”.

With `CCC=CCC(O)C=CC=CCC=CCC=CCCCC(=O)O` (stereo not shown) [15-OHEPA, 15-Hydroxy-eicosa-5,8,11,13,17-pentaenoic acid], the MIC is 50 to 75 µg/mL (≈ 157 to 236 µM). For the same compound, the “effect on growth of P. acnes on its own” value (0.05 mg/mL) is given as “no effect on its own”. Besides, under setting [4], the “Growth Index (+++, ++, +, −) Avg” value is on record as “+++”; the “Growth Index (+++, ++, +, −) Plate 1” value is on record as “+++”; the “Growth Index (+++, ++, +, −) Plate 2” value was “+++”; the “Growth Index (+++, ++, +, −) Plate 3” value was “+++”. Under setting [5], the “Growth Index (+++, ++, +, −) Avg” value is “+++”; the “Growth Index (+++, ++, +, −) Plate 1” value is on record as “+++”; the “Growth Index (+++, ++, +, −) Plate 2” value is reported as “+++”; the “Growth Index (+++, ++, +, −) Plate 3” value is recorded as “+++”. Further, under setting [6], the “Growth Index (+++, ++, +, −) Avg” value is “+++”; the “Growth Index (+++, ++, +, −) Plate 1” value is listed as “+++”; the “Growth Index (+++, ++, +, −) Plate 2” value was “+++”; the “Growth Index (+++, ++, +, −) Plate 3” value was “+++”. For the same compound, under setting [7], the “Growth Index (+++, ++, +, −) Avg” value is “+”; the “Growth Index (+++, ++, +, −) Plate 1” value was “+”; the “Growth Index (+++, ++, +, −) Plate 2” value is recorded as “+”; the “Growth Index (+++, ++, +, −) Plate 3” value is on record as “+”.

As for `CCCCC/C=C\C/C=C\C/C=C\CCCCCCC(=O)O` [DGLA, cis-8,11,14-eicosatrienoic acid], the MIC lay in the range of 400 to 600 µg/mL (≈ 1310 to 1960 µM). The “effect on growth of P. acnes on its own” value (0.4 mg/ml) is on record as “no effect on its own”. Under “compound at 0.2 mg/mL in agar”, the “Growth Index (+++, ++, +, −) Avg” value was “+++”; the “Growth Index (+++, ++, +, −) Plate 1” value is listed as “+++”; the “Growth Index (+++, ++, +, −) Plate 2” value was “+++”; the “Growth Index (+++, ++, +, −) Plate 3” value is given as “+++”. Further, under “compound at 0.4 mg/mL in agar”, the “Growth Index (+++, ++, +, −) Avg” value is “+++”; the “Growth Index (+++, ++, +, −) Plate 1” value is given as “+++”; the “Growth Index (+++, ++, +, −) Plate 2” value is “+++”; the “Growth Index (+++, ++, +, −) Plate 3” value is recorded as “+++”. Also, for the setting “compound at 0.6 mg/mL in agar”, the “Growth Index (+++, ++, +, −) Avg” value is on record as “+”; the “Growth Index (+++, ++, +, −) Plate 1” value is “++”; the “Growth Index (+++, ++, +, −) Plate 2” value is given as “−”; the “Growth Index (+++, ++, +, −) Plate 3” value is on record as “++”. Moreover, for the setting “compound at 0.8 mg/mL in agar”, the “Growth Index (+++, ++, +, −) Avg” value is on record as “+”; the “Growth Index (+++, ++, +, −) Plate 1” value is “++”; the “Growth Index (+++, ++, +, −) Plate 2” value was “+”; the “Growth Index (+++, ++, +, −) Plate 3” value is listed as “+”. Also, under “compound at 1.0 mg/mL in agar”, the “Growth Index (+++, ++, +, −) Avg” value is “+”; the “Growth Index (+++, ++, +, −) Plate 1” value is given as “+”; the “Growth Index (+++, ++, +, −) Plate 2” value is reported as “+”; the “Growth Index (+++, ++, +, −) Plate 3” value is listed as “+”.

Regarding `CC[C@H]1OC(=O)[C@H](C)[C@@H](O[C@H]2C[C@@](C)(OC)[C@@H](O)[C@H](C)O2)[C@H](C)[C@@H](O[C@@H]2O[C@H](C)C[C@H](N(C)C)[C@H]2O)[C@](C)(O)C[C@@H](C)C(=O)[C@H](C)[C@@H](O)[C@]1(C)O` [Erythromycin], the MIC lay within 0.01 to 0.05 µg/mL (≈ 0.0136 to 0.0681 µM).

For the origin of these results see patent US8293790B2, “Pharmaceutical compositions comprising DGLA and benzoyl peroxide and methods of use thereof” (Dignity Sciences Limited, priority 2011, dated 2012).
